From patent US20250019357A1, “[…] MORPHIC FORMS AND MIXTURES FOR THE TREATMENT OF MENTAL DISORDERS OR MENTAL ENHANCEMENT” (TACTOGEN INC, priority 2021, published 2025) come the findings set out here.

What is called IC50 is the midpoint of a concentration-inhibition curve. A word on the Emax: it is the maximal effect, on the per cent scale that the assay sets. A word on the EC50: it is the concentration at which the effect is half-maximal.

In data set [1] the target is T1, SERT (Rattus norvegicus (Rat), UniProt P31652). The data set can be described thus: In vitro rat synaptosome serotonin release (efflux) assay (Examples 9, 58). The format is biochemical. The note with it: rat synaptosomes. The text has this: FIG. 7B is a graph showing results from an in vitro rat synaptosome serotonin release assay. […] Details and procedural information for this assay are described in Example 9. The x-axis is the log [dose] concentration measured in molar and the y-axis is the [^3H]-labeled 5-HT release measured in percent.
FIG. 177 is a graph showing results from an in vitro rat synaptosome serotonin release assay. […] Details and procedural information for this assay are described in Example 58. The x-axis the log [dose] concentration measured in molar and the y-axis is the [^3H]-labeled 5-HT release measured in percent.

Data set [2] relates to NET. The data set can be described thus: In vitro rat synaptosome norepinephrine release assay (Examples 9, 58). The format is biochemical. The note with it: rat synaptosomes. The text has this: (§1) FIG. 8C is a graph showing results from in vitro rat synaptosome dopamine and norepinephrine release assays. […] Previously presented serotonin results are included for comparison. […] Details and procedural information for this assay are described in Example 9. The x-axis is the log [dose] concentration measured in molar and the y-axis is the [^3H]-labeled 5-HT release measured in percent.
(§2) FIG. 178 is a graph showing results from in vitro rat synaptosome dopamine and norepinephrine release assays. […] Previously presented serotonin results are included for comparison. […] Details and procedural information for this assay are described in Example 58. The x-axis the log [dose] concentration measured in Molar units and the y-axis is the [^3H]-labeled 5-HT release measured in percent of maximum produced by the comparison releaser.

In data set [3] the target is 5-HT2A receptor (Homo sapiens (Human), UniProt P28223). The experiment in a line: 5-HT2A agonist activity (Example 6). The format is cell-based.
Data set [4] addresses hTAAR1 (human trace amine-associated receptor) (Homo sapiens (Human), UniProt Q96RJ0). The data set can be described thus: Interaction with hTAAR1. The note with it: concentrations up to 60 μM.
Data set [5] in a line: Marble burying assay (Example 5). The note with it: individual enantiomers vs the racemic mixture. The class given is in vivo. The text has this:
FIG. 2 is a chart showing results from the marble burying assay to measure decreased anxiety and neuroticism resulting from treatment with S-5-MAPB, R/S-5-MAPB, and R-5-MAPB. […] The y-axis gives the compound and dose. Error bars indicate 95% confidence intervals. Details and procedural information for this assay are described in Example 5.

The test system of data set [6] is Swiss CD1 mice. The experiment in a line: Marble burying test. The class given is in vivo. The note with it: enantiomers given simultaneously.
Data set [7] concerns the target T1, SERT. The data set can be described thus: In vitro rat synaptosome serotonin uptake inhibition assay (Examples 9, 58). The class given is biochemical. The note with it: rat synaptosomes. The text has this: FIG. 7A is a graph showing results from an in vitro rat synaptosome serotonin uptake inhibition assay. […] Details and procedural information for this assay are described in Example 9. The x-axis is the log [dose] concentration measured in molar and the y-axis is the [^3H]-labeled 5-HT reuptake measured in percent.
FIG. 176 is a graph showing results from an in vitro rat synaptosome serotonin uptake inhibition assay. […] Details and procedural information for this assay are described in Example 58. The x-axis the log [dose] concentration is measured in Molar units and the y-axis is the [^3H]-labeled 5-HT reuptake measured in percent of maximum produced by the comparison releaser.

For data set [8], the target named is DAT (Rattus norvegicus (Rat), UniProt P23977). The data set can be described thus: In vitro rat synaptosome dopamine release assay (Examples 9, 58). The format is biochemical. Conditions: rat synaptosomes.
Excerpt: as §1, §2

The target in data set [9] is human 5-HT transporter (hSERT) (Homo sapiens (Human), UniProt P31645). The experiment in a line: Human serotonin transporter  assay ([3H]imipramine radioligand, CHO cells). The format is binding. The note with it: 2 nM [3H]imipramine, CHO cells; read-out: SERT IC50. As to the method: EXAMPLE 8: Human Serotonin Transporter (SERT, SLC6A4) Functional Antagonist Uptake Assay
Benzofuran derivatives were evaluated for inhibiting the human 5-HT transporter (hSERT) as expressed in CHO cells using an antagonist radioligand assay (Tatsumi, M. et al. (1999), Eur. J. Pharmacol., 368: 277-283). […] Test compounds were assayed in three trials at […], and 0.94868 μM.
EXAMPLE 57: Human Serotonin Transporter (SERT, SLC6A4) Functional Antagonist Uptake Assay

Data set [10] has as its target dopamine transporter (DAT) (Rattus norvegicus (Rat), UniProt P23977). The data set can be described thus: Rat synaptosome DAT release assay ([3H]MPP+). Conditions: read-out: dopamine Emax (maximum dopamine increase relative to reference drug).
Data set [11] concerns norepinephrine transporter (NET). The experiment in a line: Rat synaptosome NET release assay ([3H]MPP+). The note with it: rat synaptosomes.
Data set [12] addresses Human Trace Amine Associated Receptor (hTAAR1) (Homo sapiens (Human), UniProt Q96RJ0). The data set can be described thus: hTAAR1 agonist assay (DiscoverX cAMP Hunter). The class given is cell-based. The note with it: seven concentrations between 0.05692 and 60 μM.
The target in data set [13] is serotonin (5-HT) transporter (SERT) (Rattus norvegicus (Rat), UniProt P31652). The experiment in a line: Rat synaptosome SERT uptake inhibition assay ([3H]5-HT).
Data set [14] deals with MDCKII cell line. The data set can be described thus: In vitro absorption assay, MDCKII permeability. The format is in vitro ADME. The note with it: pH 7.4/7.4, 10 μM. As to the method: (§3) The permeability of 10 μM RS-5-MAPB in Caco-2, MDCKII, and MDR1-MDCKII cell line assays was assessed (Table 6). Both the AB and BA directions with and without the addition of a Pgp-specific inhibitor (verapamil), a MRP1 inhibitor (MK571), and an ATP-binding cassette subfamily G member 2 (ABCG2/BCRP) inhibitor (KG143) were measured. Trials were repeated twice, and values averaged.

The test system of data set [15] is MDR1-MDCKII cell line. The experiment in a line: In vitro absorption assay, MDR1-MDCKII permeability. The format is in vitro ADME. As to the method:
as §3

The subject of data set [16] is Caco-2 cell line. The experiment in a line: In vitro absorption assay, Caco-2 permeability. The class given is in vitro ADME. Here is the method:
as §3

Data set [17] can be described thus: Human self-reported effects of non-racemic 5-MAPB (Good, Bad, Open ratings). The class given is in vivo. The note with it: one healthy human, 54 mg total 5-MAPB HCl oral in two halves 1 hour apart; session maximum averaged (N=2, 13% S N=1). As to the method: The effects of non-racemic 5-MAPB HCl were tested by a healthy human individual at four different ratios of enantiomers plus the racemate as a control: • 54 mg S and 0 mg R (100% S) • 47 mg S and 7 mg R (about 87% S) • 36 mg S and 18 mg R (about 67% S) • 27 mg S and 27 mg R (about 50% S) • 7 mg S and 47 mg R (about 13% S)
Two trials were carried out at each ratio, except for 13% S where only one was conducted. Trials were at least 72 h apart.
5-MAPB HCl was dissolved in 1.5 ml distilled water and consumed in two halves, separated by 1 hour. Starting at 3 hours after administration, tablets of 250 mg ascorbic acid and capsules of 300 mg alpha lipoic acid were taken ad libitum (approximately every hour for a total of 4 administrations).
Measurements were made approximately every 2 hours until post 6 hours and the maximum ratings per session were analyzed. Additionally, an index of good drug effects versus emotional openness, calculated as (Open−Good)/(200, the theoretical maximum of Open+ Good), was constructed at each time point and the maximum analyzed. In healthy volunteers, Good Ratings can be considered a predictor of abuse liability. Accordingly, this index can be used as an indicator of the balance of a therapeutic effect (emotional openness) vs abuse liability.
Historic data of two trials 50 mg RS-5-MAPB Cl from the same individual were also included in the analysis for comparison.
Table 24 below indicates maximums for individual measures and for the open vs good index, averaged from all sessions (N=2, except for 13% S-5-MAPB where N=1). Qualitatively, all conditions produced subtle emotional effects, including decreases in negative affect and increases in stability of mood, without sensory distortion.

The target in data set [18] is human DAT (Homo sapiens (Human), UniProt Q01959). The data set can be described thus: hDAT release assay in CHO cells ([3H]dopamine). Conditions: read-out: EC50 DAT (Mean ± SEM), CHO cells expressing hDAT.
Data set [19] concerns the target human SERT (Homo sapiens (Human), UniProt P31645). The data set can be described thus: hSERT release assay in CHO cells ([3H]serotonin). Conditions: read-out: EC50 SERT (Mean ± SEM), CHO cells expressing hSERT.
Where [20] appears, read: Caco-2, pH 7.4/7.4 + KO143, 10 μM.
The mark [21] stands for this setting: Caco-2, pH 7.4/7.4 + verapamil, 10 μM.

Each structure is given as a SMILES string. Entries after “also recorded” stand apart in the source; their conditions may differ. Some results are limits rather than exact numbers.

On to `CCC(Cc1ccc2ccoc2c1)NC` (racemic) [Pattern 6-MBPB, 6-MBPB], for which, in data set [1], the “[3H]-labeled 5-HT release” value is 5-HT releaser. Moreover, in data set [2], the norepinephrine release result is given as “only partial releaser of norepinephrine”. In data set [3], the 5-HT2A agonist activity result is on record as “poor agonist of 5-HT2A”. Further, the “interactions with hTAAR1” value in data set [4] is on record as “lacks interactions with hTAAR1”.
Take `CNC(C)Cc1ccc2occc2c1` (centres unmarked) [Pattern 5-MAPB, 5-MAPB]: the “anxiolytic effect, percent of marbles left unburied versus placebo” value in data set [5] was “non-additive effects of the two enantiomers”. In data set [6], the “marble burying: interaction between enantiomers” value is “strong non-additive interaction”.
As for `CC[C@H](Cc1ccc2occc2c1)NC` [Pattern R-5-MBPB, R-5-MBPB], in data set [7], the “[3H]-labeled 5-HT reuptake (serotonin uptake inhibition)” value was “rapidly increases extracellular serotonin by inhibiting reuptake”. In addition, the “[3H]-labeled 5-HT release” value in data set [1] was “rapidly increases extracellular serotonin by stimulating release”. In [8], the “dopamine release / dopamine uptake” value is “reuptake inhibitors of dopamine; also recorded: dopamine uptake inhibitors”. Further, the norepinephrine release entry in data set [2] is reported as “partial releasers of norepinephrine; also recorded: rapidly increases extracellular norepinephrine by stimulating release”. The IC50 in data set [9] is under 950 nM. Besides, the maximal response (Emax) in data set [10] is about 25%. Moreover, in [11], the “norepinephrine Emax” value was 58%.
As for `CC[C@H](Cc1ccc2ccoc2c1)NC` [Pattern R-6-MBPB, R-6-MBPB], the “hTAAR1 maximum detected effects” value in data set [12] was 0.9%. Also, the Emax in data set [10] was about 25%. Moreover, in [13], the midpoint of inhibition, the IC50, lay at 702 ± 262 nM.
For `CC[C@@H](Cc1ccc2occc2c1)NC` [Pattern S-5-MBPB, S-5-MBPB], the “[3H]-labeled 5-HT reuptake (serotonin uptake inhibition)” value in data set [7] was “rapidly increases extracellular serotonin by inhibiting reuptake”. Moreover, the “[3H]-labeled 5-HT release” value in data set [1] is listed as “rapidly increases extracellular serotonin by stimulating release”. The norepinephrine release entry in data set [2] is “rapidly increases extracellular norepinephrine by stimulating release”. In addition, the half-inhibitory concentration (IC50) in data set [9] was under 950 nM.
In the case of `CC[C@@H](Cc1ccc2ccoc2c1)NC` [Pattern S-6-MBPB, S-6-MBPB], the “hTAAR1 maximum detected effects” value in data set [12] turned out to be 0.6%. In data set [10], the maximal effect (Emax) is 72%. Also, the midpoint of inhibition in data set [13], the IC50, lay at 217 ± 45.8 nM.
With `CNC(C)Cc1ccc2occc2c1` (centres unmarked) [RS-5-MAPB], the “Permeability (Papp) A-B” value in data set [14] was 82.1 10^−6 cm/s; in [15] (pH 7.4/7.4 + verapamil, 10 μM), 42.8 10^−6 cm/s; in data set [15] (pH 7.4/7.4, 10 μM), 68.7 10^−6 cm/s; in [16] (setting [20]), 75.3 10^−6 cm/s; in data set [16] (setting [21]) it was 37.6 10^−6 cm/s; in data set [16] (Caco-2, pH 7.4/7.4, 10 μM) it was 81 10^−6 cm/s. The “Permeability (Papp) B-A” value in data set [14] is reported as 19.8 10^−6 cm/s; in data set [15] (pH 7.4/7.4 + verapamil, 10 μM), 30.4 10^−6 cm/s; in data set [15] (pH 7.4/7.4, 10 μM), 20.5 10^−6 cm/s; in data set [16] (setting [20]), 14 10^−6 cm/s; in [16] (setting [21]) it was 23 10^−6 cm/s; in data set [16] (Caco-2, pH 7.4/7.4, 10 μM), 29.1 10^−6 cm/s. Further, the “absorption (conclusion of the permeability assays)” value in data set [16] (Caco-2, MDCKII and MDR1-MDCKII assays taken together) is on record as “well absorbed”. For the same compound, the “Bad (bad drug effects), maximum 0-100 rating” value in [17] was 10%. For the same compound, the “Good (good drug effects), maximum 0-100 rating” value in [17] is reported as 50%. In data set [17], the “Open (emotional openness), maximum 0-100 rating” value amounted to 45%. Moreover, the EC50 turned out to be 459 ± 48 nM in data set [18] and 90 ± 16 nM in [19].
